The target of assay [1] is T1, ALOX-isoform of N. furzeri (putative ALOX15 ortholog) (Nothobranchius furzeri, UniProt A0A1A7ZHE9).
T1 construct: gene ALOX12; cell lysate supernatant used (activity lost on purification)
T1 sequence (A0A1A7ZHE9 1-670): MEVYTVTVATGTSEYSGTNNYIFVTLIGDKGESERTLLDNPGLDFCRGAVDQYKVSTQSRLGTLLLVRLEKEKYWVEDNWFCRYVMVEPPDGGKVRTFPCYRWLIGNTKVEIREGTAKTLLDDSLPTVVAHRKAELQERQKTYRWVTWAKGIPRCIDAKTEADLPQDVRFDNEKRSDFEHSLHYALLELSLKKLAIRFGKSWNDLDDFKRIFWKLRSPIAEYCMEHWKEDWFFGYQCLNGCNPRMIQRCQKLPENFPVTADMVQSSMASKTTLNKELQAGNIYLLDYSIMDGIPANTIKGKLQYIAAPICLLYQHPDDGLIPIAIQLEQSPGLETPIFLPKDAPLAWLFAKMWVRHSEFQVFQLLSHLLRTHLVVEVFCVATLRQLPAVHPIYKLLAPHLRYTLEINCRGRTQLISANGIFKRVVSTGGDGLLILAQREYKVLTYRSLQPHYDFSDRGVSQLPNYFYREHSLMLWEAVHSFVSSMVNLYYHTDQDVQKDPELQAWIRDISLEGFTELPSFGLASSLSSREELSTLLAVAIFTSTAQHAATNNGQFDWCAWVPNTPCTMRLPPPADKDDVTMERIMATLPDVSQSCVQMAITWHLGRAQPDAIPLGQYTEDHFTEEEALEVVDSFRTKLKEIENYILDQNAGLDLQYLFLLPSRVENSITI
As to the kind of experiment: lysate supernatant oxygenation assay, RP-HPLC / NP-HPLC of products. Type of assay: biochemical. As to conditions: 100 µM AA; 3 min; products after reduction 12-HETE (major) and 8-HETE.

The target of assay [2] is T2, ALOX-isoform of P. nyererei (putative ALOX15 ortholog) (Pundamilia nyererei, UniProt A0A3B4GKQ4).
T2 construct: gene alox12; cell lysate supernatant used (activity lost on purification)
T2 sequence (A0A3B4GKQ4 1-670): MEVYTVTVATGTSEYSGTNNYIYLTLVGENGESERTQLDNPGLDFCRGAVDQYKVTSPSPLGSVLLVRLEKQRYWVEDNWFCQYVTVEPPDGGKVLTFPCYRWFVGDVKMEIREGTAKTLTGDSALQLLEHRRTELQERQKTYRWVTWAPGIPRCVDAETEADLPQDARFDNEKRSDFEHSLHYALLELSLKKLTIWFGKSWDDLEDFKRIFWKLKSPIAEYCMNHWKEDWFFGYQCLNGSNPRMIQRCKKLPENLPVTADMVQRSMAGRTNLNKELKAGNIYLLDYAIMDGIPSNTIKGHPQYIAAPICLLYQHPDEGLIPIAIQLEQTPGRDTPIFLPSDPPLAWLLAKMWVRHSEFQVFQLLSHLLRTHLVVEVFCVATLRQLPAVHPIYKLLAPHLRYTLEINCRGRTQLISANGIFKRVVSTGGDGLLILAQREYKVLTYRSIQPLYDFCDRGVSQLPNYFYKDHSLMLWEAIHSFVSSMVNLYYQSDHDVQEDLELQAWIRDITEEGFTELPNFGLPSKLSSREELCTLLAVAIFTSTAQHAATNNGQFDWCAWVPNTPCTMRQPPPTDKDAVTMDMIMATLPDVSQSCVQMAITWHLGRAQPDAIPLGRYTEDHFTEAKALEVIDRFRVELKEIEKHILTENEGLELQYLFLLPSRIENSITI
The assay is described as above. Type of assay: biochemical. The conditions noted are these: 100 µM AA; 3 min; products after reduction 12-HETE (major) and 8-HETE.

For `CCCCC/C=C\C/C=C\C/C=C\C/C=C\CCCC(=O)O` [AA, arachidonic acid], the “lysate supernatant oxygenation assay, RP-HPLC / NP-HPLC of products” value in assay [1] and in assay [2] was “AA is oxygenated by the three bony fish ALOX-isoforms to a mixture of 12-HETE” throughout.
